According to patent publication EP0563238B1, “IMIDAZOLYL-ALKENOIC ACIDS” (SMITHKLINE BEECHAM CORPORATION, priority 1990, dated 1992):

Molecular target: vascular angiotensin II receptors
Experiment: 125I-angiotensin II radioligand binding assay
Settings: particular fraction from rat mesenteric arteries, 80 pM 125I-angiotensin II, 1 hour at 25°C; concentration needed to displace 50% of the total specifically bound angiotensin II
Procedure: Angiotensin II antagonist activity of the compounds of Formula (I) is assessed by in vitro and in vivo methods. In vitro antagonist activity is determined by the ability of the compounds to compete with ^125I-angiotensin II for binding to vascular angiotensin II receptors and by their ability to antagonize the contractile response to angiotensin II in the isolated rabbit aorta. In vivo activity is evaluated by the efficacy of the compounds to inhibit the pressor response to exogenous angiotensin II in conscious rats and to lower blood pressure in a rat model of renin dependent hypertension.
The radioligand binding assay is a modification of a method previously described in detail (Gunther et al., Circ. Res. 47:278, 1980). A particular fraction from rat mesenteric arteries is incubated in Tris buffer with 80 pM of ^125I-angiotensin II with or without angiotensin II antagonists for 1 hour at 25°C. The incubation is terminated by rapid filtration and receptor bound ^125I-angiotensin II trapped on the filter is quantitated with a gamma counter. The potency of angiotensin II antagonists is expressed as the IC50 which is the concentration of antagonist needed to displace 50% of the total specifically bound angiotensin II.

CCCCc1ncc(/C=C(\Cc2cccs2)C(=O)O)n1-c1ccc(C(=O)O)cc1 [Example 1, (E)-3-[2-n-Butyl-1-{4-carboxyphenyl}-1H-imidazo-5-yl]-2-(2-thienyl)methyl-2-propenoic acid]
IC50: ~250 nM
